Several values for one entry are separate records, joined by “and”; a condition that tells them apart may be missing. Equal entries are not always repeated. Inconclusive results and toxic doses are left out.

This assay relates to B6C3F1 mice, Lewis lung carcinoma iv, survival T/C. The experiment in a line: NCI In Vivo Anticancer Drug Screen. Data for tumor model Lewis Lung Carcinoma (intravenous) in B6C3F1 mice. The conditions noted are these: endpoint: median survival time, schedule: Q01DX009 (ip), higher = longer survival. The method, boiled down:
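Tumors were transplanted into mice, which were then dosed with compound or vehicle. Survival was recorded in each group, and the treated figure was divided by the control figure.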

Where [1] appears, read: dose: 50.0 mg/kg/injection, vehicle: water.
The mark [2] stands for this setting: dose: 100.0 mg/kg/injection, vehicle: water.
The mark [3] stands for this setting: dose: 200.0 mg/kg/injection, vehicle: water.
Setting [4] is: dose: 400.0 mg/kg/injection, vehicle: water.
Setting [5] is: dose: 6.25 mg/kg/injection, vehicle: saline with Tween-80.
Setting [6] is: dose: 12.5 mg/kg/injection, vehicle: saline with Tween-80.
Where [7] appears, read: dose: 25.0 mg/kg/injection, vehicle: saline with Tween-80.
[8] abbreviates: dose: 50.0 mg/kg/injection, vehicle: saline with Tween-80.
[9] abbreviates: dose: 100.0 mg/kg/injection, vehicle: saline with Tween-80.
Setting [10] is: dose: 200.0 mg/kg/injection, vehicle: saline with Tween-80.
Where [11] appears, read: dose: 3.12 mg/kg/injection, vehicle: saline.
Where [12] appears, read: dose: 6.25 mg/kg/injection, vehicle: saline.
[13] abbreviates: dose: 12.5 mg/kg/injection, vehicle: saline.
Where [14] appears, read: dose: 25.0 mg/kg/injection, vehicle: saline.
[15] abbreviates: dose: 50.0 mg/kg/injection, vehicle: saline.
The mark [16] stands for this setting: dose: 1.56 mg/kg/injection, vehicle: saline.
[17] abbreviates: dose: 2.5 mg/kg/injection, vehicle: saline.
Where [18] appears, read: dose: 10.0 mg/kg/injection, vehicle: saline.

With `BrCCC1(CCBr)CCCCC1`, the T/C by setting is: under setting [1], 104 % of control; under setting [2], 103 % of control; under setting [3], 98 % of control; under setting [4], 96 % of control.

As to `Cc1ccc2c(c1)N=C(Nc1ccccc1)N=S2(C)=O` (stereo not drawn), the T/C reads like this: under setting [5], 99 % of control; under setting [6], 92 % of control; under setting [7], 93 % of control; under setting [8], 95 % of control; under setting [9], 108 % of control; under setting [10], 119 % of control.

Take `C[C@@]1(CO)[C@H](O)CC[C@@]2(C)[C@H]1CC[C@H]1C[C@@H]3C[C@@]12CC[C@@]3(O)COC(=O)CN`: the T/C is 107 % of control (dose: 0.2 mg/kg/injection, vehicle: saline + alcohol); 109 % of control (dose: 0.4 mg/kg/injection, vehicle: saline + alcohol); 103 % of control (dose: 0.8 mg/kg/injection, vehicle: saline + alcohol); 103 % of control (dose: 1.6 mg/kg/injection, vehicle: saline + alcohol); 113 % of control (dose: 12.5 micrograms/kg/injection, vehicle: saline + alcohol); 120 % of control (dose: 25.0 micrograms/kg/injection, vehicle: saline + alcohol). The T/C is 102 % of control (dose: 50.0 micrograms/kg/injection, vehicle: saline + alcohol); 95 % of control (dose: 100.0 micrograms/kg/injection, vehicle: saline + alcohol); 98 % of control (dose: 200.0 micrograms/kg/injection, vehicle: saline + alcohol).

Take `CC1CN1P1(N2CC2C)=NP(N2CC2C)(N2CC2C)=NP(N2CC2C)(N2CC2C)=N1` (stereo not drawn): the T/C under setting [11] is 100 % of control; the T/C under setting [12] is 100 % of control; the T/C under setting [13] was 98 % of control; the T/C under setting [14] was 97 % of control; the T/C under setting [15] was 90 % of control.

Consider `CCCCCCCCCCCCCCCCCCOCC(COP(=O)([O-])OCC[N+](C)(C)C)OC` (stereo not drawn), for which the T/C (dose: 6.25 mg/kg/injection, vehicle: suspension in saline) was 96 % of control; the T/C (dose: 12.5 mg/kg/injection, vehicle: suspension in saline) is 99 % of control; the T/C (dose: 25.0 mg/kg/injection, vehicle: suspension in saline) is 100 % of control.

As for `O=C1C(O)=C(c2ccccc2)C(=O)C(O)=C1c1ccccc1`, the T/C by setting is: under setting [16], 98 % of control; under setting [11], 98 % of control and 117 % of control; under setting [5], 99 % of control; under setting [12], 99 % of control and 118 % of control; under setting [6], 101 % of control; under setting [13], 108 % of control and 113 % of control. Further, the T/C runs as follows: under setting [7], 101 % of control; under setting [14], 98 % of control and 104 % of control; under setting [8], 102 % of control; under setting [15], 94 % of control and 99 % of control.

On to `Cc1ccc2c(ccc(/C=C/c3ccc(O)c4ncccc34)[n+]2C)c1`, for which the T/C by setting is: under setting [13], 100 % of control; under setting [14], 86 % of control.

Consider `O=C(NO)c1cc(O)c(O)c(O)c1`, for which the T/C runs as follows: (dose: 25.0 mg/kg/injection, vehicle: water) 100 % of control; under setting [1], 98 % of control; under setting [2], 100 % of control; under setting [3], 110 % of control; under setting [4], 93 % of control.

For `CC[C@H](CC[C@@H](C)C1CC[C@H]2[C@@H]3CC=C4C[C@@H](OP(=O)(N5CC5)N5CC5)CC[C@]4(C)[C@H]3CC[C@]12C)C(C)C` (stereo partly drawn), the T/C by setting is: under setting [6], 100 % of control; under setting [7], 95 % of control; under setting [8], 97 % of control; under setting [9], 100 % of control; under setting [10], 95 % of control.

With `OCC12COCN1COC2`, the T/C is 103 % of control and 104 % of control under setting [13]; 98 % of control and 101 % of control under setting [14]; 100 % of control and 106 % of control under setting [15]; 97 % of control and 102 % of control (dose: 100.0 mg/kg/injection, vehicle: saline); 98 % of control (dose: 200.0 mg/kg/injection, vehicle: saline); 104 % of control and 112 % of control (dose: 400.0 mg/kg/injection, vehicle: saline).

Turning to `CO[C@H]1Nc2c(ccc(C)c2O)C(=O)N2C=C(/C=C/C(N)=O)C[C@@H]12`, the T/C (dose: 0.06 mg/kg/injection, vehicle: saline + alcohol) was 105 % of control; the T/C (dose: 0.12 mg/kg/injection, vehicle: saline + alcohol) is 100 % of control; the T/C (dose: 0.25 mg/kg/injection, vehicle: saline + alcohol) was 113 % of control.

`COc1cccc2c1C(=O)c1c(O)c3c(c(O)c1C2=O)CC(O)(/C(C)=N/NC(=O)CCC(=O)N/N=C(\C)C1(O)Cc2c(O)c4c(c(O)c2C(OC2CC(N)C(O)C(C)O2)C1)C(=O)c1c(OC)cccc1C4=O)CC3OC1CC(N)C(O)C(C)O1` (stereo not drawn): the T/C is 99 % of control and 100 % of control (dose: 0.75 mg/kg/injection, vehicle: water); 103 % of control and 105 % of control (dose: 1.5 mg/kg/injection, vehicle: water); 101 % of control (dose: 3.0 mg/kg/injection, vehicle: water); 105 % of control and 260 % of control (dose: 6.0 mg/kg/injection, vehicle: water); 101 % of control and 113 % of control (dose: 12.0 mg/kg/injection, vehicle: water); 104 % of control (dose: 24.0 mg/kg/injection, vehicle: water).

Take `Nc1ccc2c(c1)CN1C(=O)c3ccccc3C1=N2`: the T/C under setting [7] is 117 % of control and the T/C under setting [8] is 116 % of control.

For `Cc1ccc(C2NC(=S)N3C(c4ccc(C)cc4)NC(=S)N23)cc1` (stereo not drawn), the T/C (dose: 25.0 mg/kg/injection, vehicle: Klucel (hydroxypropylcellulose) (HPC)) was 103 % of control; the T/C (dose: 50.0 mg/kg/injection, vehicle: Klucel (hydroxypropylcellulose) (HPC)) was 101 % of control; the T/C (dose: 100.0 mg/kg/injection, vehicle: Klucel (hydroxypropylcellulose) (HPC)) was 93 % of control; the T/C (dose: 200.0 mg/kg/injection, vehicle: Klucel (hydroxypropylcellulose) (HPC)) is 99 % of control; the T/C (dose: 400.0 mg/kg/injection, vehicle: Klucel (hydroxypropylcellulose) (HPC)) is 98 % of control; the T/C (dose: 800.0 mg/kg/injection, vehicle: Klucel (hydroxypropylcellulose) (HPC)) is 109 % of control.

Consider `O=CC(O)C(O)C(O)C(O)C(=O)O.[NH-]C1CCCCC1[NH-].[Pt+2]` (stereo not drawn), for which the T/C was 93 % of control (dose: 0.2 mg/kg/injection, vehicle: saline); 94 % of control (dose: 0.39 mg/kg/injection, vehicle: saline); 93 % of control (dose: 0.78 mg/kg/injection, vehicle: saline); 106 % of control under setting [16].

As to `C[PH+](C)C.C[PH+](C)C.[Au]`, the T/C is, setting by setting: (dose: 0.62 mg/kg/injection, vehicle: saline) 97 % of control; (dose: 1.25 mg/kg/injection, vehicle: saline) 102 % of control; under setting [17], 105 % of control; under setting [18], 109 % of control.

For `O=NN(CCF)C(=O)N[C@H]1CCCC[C@H]1O`, the T/C by setting is: under setting [17], 105 % of control; (dose: 5.0 mg/kg/injection, vehicle: saline) 121 % of control; under setting [18], 173 % of control; (dose: 20.0 mg/kg/injection, vehicle: saline) 312 % of control.

Take `O=C(O)C(O)C(O)C1[O][Sb][O]C1C(=O)O` (stereo not drawn): the T/C under setting [12] was 103 % of control, the T/C under setting [13] is 108 % of control, the T/C under setting [14] is 98 % of control and the T/C under setting [15] is 108 % of control.

The record behind these values is PubChem BioAssay AID276 (DTP/NCI, 2004).
